{"source": "patent US8987201B2", "about": "“Black bear parathyroid hormone and methods of using black bear parathyroid hormone” (Michigan Technological University, priority 2009, dated 2015)", "key": {"Male Swiss-Webster mice [1]": {"system": "Male Swiss-Webster mice", "assay": "Cortical bone dynamic histomorphometry in the femur (calcein labels)", "type": "in vivo, mouse", "details": "femoral midshaft, 2.5 nmol/kg s.c., 8 weeks, SD in parentheses", "description": "(§1) All handling procedures and experiments were approved by the Michigan Technological University Institutional Animal Care and Use Committees. Male Swiss-Webster mice were obtained from a commercial breeder (Harlan, Indianapolis, Ind.). All animals were maintained on a 12-h light/12-h dark cycle, and were permitted free access to water and food containing 0.95% calcium (Purina Rodent Diet #5001).\n(§2) In the first experiment, 11 wk old mice received daily (5 days/week) subcutaneous injections of 2.5 nmol/kg PTH 1-34 (hPTH 1-34 or bbPTH 1-34) or acidic saline vehicle (0.15 M NaCl+0.001 N HCl) for 8 weeks (n=10 mice/group). In the second experiment, 12 wk old mice received daily (5 days/week) subcutaneous injections of 2.5 nmol/kg PTH 1-84 (hPTH 1-84 or bbPTH 1-84) or acidic saline vehicle for 8 weeks (n=10 mice/group). All PTH- and vehicle-treated animals received subcutaneous injections of calcein at a dosage of 10 mg/kg on days 12 and 3 before death to label mineralizing bone surfaces. Twenty-four hours following the last treatment injection, mice were sacrificed by carbon dioxide asphyxiation. Right femurs were fixed in 10% neutral buffered formalin. Left femurs were wrapped in 0.15M saline soaked gauze and stored at −20 deg C. Left tibias were stored in 70% ethanol at 4 deg C.\nFollowing the bending test, the left femoral diaphyses were ashed in a furnace to determine mineral content (ash fraction). Right femoral diaphyses were embedded in methyl methacrylate and sectioned with a diamond saw to expose the midshaft cross-section. Images of the midshaft cross-sections were captured using a digital camera (Spot Insight QE, Diagnostic Instruments Inc., Sterling Heights, Mich.), and Scion Image analysis software (Scion Corporation, Frederick, Md.) was used to calculate the periosteal area (Ps.Ar), cortical area (Ct.Ar), and endosteal area (Es.Ar) for each sample. Cortical bone thickness (Ct.Th) was calculated in 0.1 mm increments for each anatomical quadrant and for the entire cross-section using image analysis software (Bioquant Osteo, Nashville, Tenn.). Thin sections from the midshaft of the right femur were ground to a thickness of 50 μm and mounted on glass slides. Images of calcein labels were captured at 100× magnification and periosteal and endosteal mineral apposition rates (Ps.MAR and Es.MAR, respectively) and mineralizing surfaces (Ps.MS/BS and Es.MS/MS) were quantified (Bioquant) for each femur.\n(§3) All bone geometrical, architectural, and mineral properties were normalized by body mass to account for potential variation in animal size (31-33). Trabecular bone properties quantified by micro-computed tomography were compared by ANOVA between vehicle, bear, and human PTH-treated mice within each study (PTH 1-34 or PTH 1-84). The microCT parameters were not directly compared between the PTH 1-34 and PTH 1-84 studies because analyses were conducted on different microCT machines. For all other bone properties, all six experimental groups (from both the PTH 1-34 and PTH 1-84 studies) were compared with ANOVA and Fisher's PLSD. A significance of p<0.05 was used for all comparisons."}, "male mice": {"system": "male mice", "details": "Sakai et al. 1999, cited from earlier work"}, "Male Swiss-Webster mice [2]": {"system": "Male Swiss-Webster mice", "assay": "Trabecular bone structure and mineralization in the proximal tibia (micro-computed tomography)", "type": "in vivo, mouse", "details": "PTH 1-34 study: 11 wk old mice, 8 weeks, proximal tibia, normalized by body mass", "description": "as §1, §2\nTrabecular bone architecture and mineralization were evaluated in the left proximal tibial metaphysis (0.7 mm distal to the growth plate) using micro-computed tomography. Tibias from experiment 1 were scanned on a μCT35 scanner (Scanco Medical AG, Basserdorf, Switzerland) at 3.5 μm (high) resolution. Tibias from experiment 2 were scanned on a μCT40 scanner (Scanco Medical AG, Basserdorf, Switzerland) at 7 μm (high) resolution. Bones were scanned in 70% ethanol. Trabecular bone volume fraction (BV/TV, %), trabecular number (Tb.N, mm^−1), trabecular thickness (Tb.Th, m), trabecular separation (Tb.Sp, m), trabecular apparent mineral density (App.Mn.Dn, mgHA/cm^3) and trabecular tissue mineral density (Mat.Mn.Dn, mgHA/cm^3) were computed using the manufacturer's software.\nas §3"}, "procollagen-1 mRNA": {"system": "procollagen-1 mRNA", "details": "Nasu et al., 1998; cited from earlier work"}, "[3]": {"system": "ovariectomized (OVX) Sprague-Dawley rats", "assay": "In vivo rat OVX dose response study: bone μCT and bone strength", "description": "Ninety female, 3-month old Sprague-Dawley rats were obtained. Eighty (80) of the rats were ovariectomized (OVX) and ten (10) underwent a sham OVX procedure (sham OVX) in which the ovaries were left in the animal. The OVX animals were randomly assigned into groups of ten for further experiments.\nFollowing the actual or sham OVX procedure, all animals were untreated for 6 weeks to allow bone loss. After the 6 week period of bone loss, groups of animals were injected for a six- or eight-week period (daily for five days per week) with vehicle (saline) or 3, 10, or 30 μg/kg bear or human PTH1-34. […] The sham OVX group as well as one group of actual OVX rats were euthanized at six weeks while the remaining animals were euthanized at fourteen weeks following the OVX procedure. Samples were obtained from the euthanized animals for further analysis.\nThree-dimensional images of bones were obtained using micro-computed tomography (μCT). The three-dimensional images were then used to quantify bone parameters, as explained below. The measurements were conducted on a 1.6 mm-thick region that begins at a position 2 mm from the growth plate (FIG. 8). Bone samples were obtained and analyzed from sham (FIG. 9A, “Sham OVX 6 weeks”) and actual (FIG. 9B, “OVX 6 weeks”) OVX rats that were euthanized at six weeks after the procedure, as well as a group of actual OVX rats that were euthanized at fourteen weeks after the procedure (FIG. 9C, “OVX 14 weeks”). The rats in the OVX 14 group were given injections of vehicle (saline) for 8 weeks following the 6 week bone loss period, in parallel with the PTH1-34 injections for eight weeks (FIGS. 9D, 9E, and 9F). The samples shown in FIGS. 9D, 9E, and 9F were obtained from rats that were injected for eight weeks following the 6 week bone loss period, with 3, 10, or 30 μg/kg black bear PTH1-34 (“bbPTH”), respectively."}}}
{"substance": "human PTH 1-34 [hPTH 1-34]", "values": [{"measurement": "Endosteal MAR", "setting": "Male Swiss-Webster mice [1]", "result": "0.56 (0.18)"}, {"measurement": "Endosteal MS/BS", "setting": "Male Swiss-Webster mice [1]", "result": "39.3 (17.7)"}, {"measurement": "Periosteal MAR", "setting": "Male Swiss-Webster mice [1]", "result": "0.53 (0.21)"}, {"measurement": "Periosteal MS/BS", "setting": "Male Swiss-Webster mice [1]", "result": "24.0 (13.8)"}, {"measurement": "trabecular thickness (Tb.Th) or mineral apposition rates (MAR) in the proximal tibia", "setting": "male mice; daily injections of 1 nmol/kg for 6 weeks", "result": "did not affect"}, {"measurement": "trabecular thickness (Tb.Th) and mineral apposition rates (MAR) in the proximal tibia", "setting": "male mice; higher molar dosage (˜10 nmol/kg)", "result": "increased"}, {"measurement": "BV/TV", "setting": "Male Swiss-Webster mice [2]; 2.5 nmol/kg s.c. daily 5 days/week", "result": 1.35, "unit": "%/kg"}, {"measurement": "App. Mn. Dn", "setting": "Male Swiss-Webster mice [2]; 2.5 nmol/kg s.c.", "result": "1783 mgHA/(cm^3*kg)"}, {"measurement": "Mat. Mn. Dn.", "setting": "Male Swiss-Webster mice [2]; 2.5 nmol/kg s.c.", "result": "31281 mgHA/(cm^3*kg)"}, {"measurement": "Tb. N", "setting": "Male Swiss-Webster mice [2]; 2.5 nmol/kg s.c.", "result": "105.0 1/mm*kg"}, {"measurement": "Tb. Sp", "setting": "Male Swiss-Webster mice [2]; 2.5 nmol/kg s.c.", "result": 9.57, "unit": "mm/kg"}, {"measurement": "Tb. Th", "setting": "Male Swiss-Webster mice [2]; 2.5 nmol/kg s.c.", "result": 1.05, "unit": "mm/kg"}, {"measurement": "production of procollagen-1 mRNA", "setting": "procollagen-1 mRNA", "result": "down-regulates"}, {"measurement": "average thickness of the trabecular struts (Tb.Th) compared to vehicle-treated controls", "setting": "[3]; OVX rats", "result": "significantly (p<0.05) increased"}, {"measurement": "increasing tibial cortical bone volume (BV), human vs bear", "setting": "[3]; OVX rats", "result": "better than bear PTH1-34"}, {"measurement": "trabecular bone mineralization (M.Dn) vs vehicle (saline) alone", "setting": "[3]; OVX rats", "result": "significantly (p<0.05) greater trabecular bone mineralization"}, {"measurement": "bone mineral apparent density, hPTH vs bbPTH", "setting": "[3]; OVX rats, 30 μg/kg", "result": "significantly higher (p<0.05)"}, {"measurement": "bone mineral apparent density (App.Dn) vs vehicle (saline) alone", "setting": "[3]; OVX rats, 3, 10, or 30 μg/kg", "result": "significantly higher (p<0.05)"}, {"measurement": "bone volume as a fraction of total volume (BV/TV) vs vehicle (saline) alone", "setting": "[3]; OVX rats, 3, 10, or 30 μg/kg", "result": "significantly (p<0.05) greater bone volume fraction than treatment with vehicle (saline) alone at all three levels tested"}, {"measurement": "bone volume fraction, human PTH vs bear PTH", "setting": "[3]; OVX rats, highest dose of 30 μg/kg", "result": "significantly (p<0.05) greater"}, {"measurement": "tibial cortical porosity relative to vehicle (saline) alone", "setting": "[3]; OVX rats, middle (10 μg/kg) and higher doses (30 μg/kg)", "result": "significantly (p<0.05) decreased"}, {"measurement": "femoral cortical bone strength relative to vehicle-treated controls", "setting": "[3]; OVX rats, only higher doses (30 μg/kg)", "result": "significant (p<0.05) increases"}]}
